Laboratory results from US20070149580A1, “USE OF PEROXISOME PROLIFERATOR ACTIVATED RECEPTOR DELTA AGONISTS FOR THE TREATMENT OF MS AND OTHER DEMYELINATING DISEASES” (AVENTIS PHARMACEUTICALS INC., priority 2004, published 2007).

Columns and labels:
[1] = test system: PPAR delta pathway in cultured rat oligodendrocytes; experiment: Quantitative PCR of PPAR delta pathway transcriptional markers (ADRP mRNA) in cultured rat oligodendrocytes; assay type: cell-based; details: FIG. 4B
Source text: • 1. Primary rat oligodendrocyte progenitor cells are obtained from the neocortex of newborn (postnatal days 2-3) rats or mice and are enriched, after removal of microglia, by mechanical separation from the astrocytic monolayer using a modification of the technique originally described by McCarthy and de Vellis (1980). • 2. Remove the meninges from neonatal rat brain and mechanically dissociate tissue. Plate cells on T75 flasks and feed cells with DMEM/F12+10% FBS. • 3. Collect oligodendrocytes growing on the astrocyte bed layer by shaking-off method fourteen days after the original prep date. Centrifuge the suspension and resuspend the cell pellet in serum free media (SFM; DMEM combined with 25 μg/ml transferring, 30 nM triiodothyronine, 20 nM hydrocortisone, 20 nM progesterone, 10 nM biotin, 1× trace elements, 30 nM selenium, 1 μg/ml putrescine, 0.1% BSA, 5 U/ml PenStrep, 10 μg/ml insulin) supplemented with the following growth factors: Platelet derived growth factor-AA (PDGF) and fibroblast growth factor-2 (FGF). • 4. Plate the cells on PDL-coated dishes and incubate at 37° C. with 6-7% CO2. • 5. Media components are replaced every 48 hr to keep the cells in a progenitor state. Progenitor Cell Passaging to Increase Cell Numbers for Screening Assays: • 1. […]
• 1. […] PPAR delta pathway member transcript expression is quantitated using Sybr Green PCR Master Mix. • 4. […]

Mouse PPAR delta = target: T1, Mouse PPAR delta (Mus musculus, UniProt P35396); experiment: Mouse PPAR delta GAL4/luciferase reporter assay; assay type: cell-based
T1 construct: expressed in transfected cells
T1 sequence (P35396 1-440): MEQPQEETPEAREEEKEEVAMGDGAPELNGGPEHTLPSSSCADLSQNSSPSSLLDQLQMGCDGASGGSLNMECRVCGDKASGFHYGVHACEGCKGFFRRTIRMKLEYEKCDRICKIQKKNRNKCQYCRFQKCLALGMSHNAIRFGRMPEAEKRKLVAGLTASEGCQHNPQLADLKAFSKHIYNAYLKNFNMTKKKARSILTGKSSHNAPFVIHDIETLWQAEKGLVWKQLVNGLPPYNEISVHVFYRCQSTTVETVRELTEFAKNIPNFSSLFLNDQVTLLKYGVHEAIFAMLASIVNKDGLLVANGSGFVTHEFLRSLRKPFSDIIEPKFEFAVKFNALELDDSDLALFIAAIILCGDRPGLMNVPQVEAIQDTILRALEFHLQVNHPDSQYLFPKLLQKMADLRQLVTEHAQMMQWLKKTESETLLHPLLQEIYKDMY
Method: The optimum nuclear receptor selectivity profile is determined by the GAL4/luciferase reporter assays.

human PPAR delta = target: T2, human PPAR delta (Homo sapiens, UniProt Q03181); experiment: cell-based
T2 sequence (Q03181 139-441): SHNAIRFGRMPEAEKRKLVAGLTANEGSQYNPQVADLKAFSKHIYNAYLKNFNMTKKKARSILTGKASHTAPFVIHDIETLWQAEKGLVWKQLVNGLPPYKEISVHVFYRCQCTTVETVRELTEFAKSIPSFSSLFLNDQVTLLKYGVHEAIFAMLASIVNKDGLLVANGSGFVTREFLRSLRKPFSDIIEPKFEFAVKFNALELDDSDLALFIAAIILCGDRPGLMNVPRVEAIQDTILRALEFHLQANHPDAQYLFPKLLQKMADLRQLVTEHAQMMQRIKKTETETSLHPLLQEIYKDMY

human PPAR alpha = target: T3, human PPAR alpha (Homo sapiens, UniProt Q07869); experiment: Cellular PPAR alpha GAL4/luciferase reporter assay (HEK reporter cell line); assay type: cell-based
T3 construct: human PPAR alpha receptor (amino acids S167-Y468); expressed in transfected cells; host or cells: HEK cells, stably transfected (pcDNA3, CMV promoter)
T3 sequence (Q07869 167-468): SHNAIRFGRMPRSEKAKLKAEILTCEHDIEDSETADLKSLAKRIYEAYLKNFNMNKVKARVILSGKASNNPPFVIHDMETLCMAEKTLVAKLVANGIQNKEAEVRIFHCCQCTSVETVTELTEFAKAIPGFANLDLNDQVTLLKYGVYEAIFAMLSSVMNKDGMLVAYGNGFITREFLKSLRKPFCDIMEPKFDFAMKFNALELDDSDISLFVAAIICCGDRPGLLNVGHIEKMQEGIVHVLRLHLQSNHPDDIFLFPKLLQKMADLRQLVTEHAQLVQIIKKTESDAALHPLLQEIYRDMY
Method: The potency of substances which bind to human PPAR alpha and activate it in an agonistic manner is analyzed using a stably transfected HEK cell line (HEK=human embryo kidney) which is referred to here as PPAR alpha reporter cell line. It contains two genetic elements, a luciferase reporter element (pdeltaM-GAL4-Luc-Zeo) and a PPAR alpha fusion protein (GR-GAL4-humanPPAR alpha-LBD) which mediates expression of the luciferase reporter element depending on a PPAR alpha ligand. The stably and constitutively expressed fusion protein GR-GAL4-humanPPAR alpha-LBD binds in the cell nucleus of the PPAR alpha reporter cell line via the GAL4 protein portion to the GAL4 DNA binding motifs 5′-upstream of the luciferase reporter element which is stably integrated in the genome of the cell line. […] PPAR alpha ligands bind and activate the PPAR alpha fusion protein and thereby stimulate the expression of the luciferase reporter gene.
The finished PPAR alpha reporter cell line which contains a luciferase reporter element and constitutively expresses the PPAR alpha fusion protein (GR-GAL4-human PPAR alpha-LBD) was isolated by selection with zeocin (0.5 mg/ml) and G418 (0.5 mg/ml).

| SMILES | ADRP mRNA [1] | EC50 (Mouse PPAR delta) [nM] | EC50 (human PPAR delta) [nM] | EC50 (human PPAR alpha) [nM] |
| --- | --- | --- | --- | --- |
| Cc1cc(SCc2sc(-c3ccc(C(F)(F)F)cc3)nc2C)ccc1OCC(=O)O [Compound 1] | upregulated |  |  |  |
| CCCc1c(OCCCOc2ccc(OCC(=O)O)cc2)ccc(C(C)=O)c1O [Compound 2] |  | 1000 | 39 | 1100 |
